From the supplement of paper PMC11061612

Assays:
Test in all cases: Bliss excess, mean over the matrix (fraction); higher = more synergy
[1] = tested on: AMO-1 (Plasma Cell Myeloma)
Outline: (§1)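 Cell lines in DMEM/F12 or RPMI with 10% FBS were plated in 1536-well plates, held 24 hours at 37°C, 5% CO2, then given two-drug dose matrices for 72 hours (DMSO typically 0.2%). Viability was read by CellTiter-Glo 2.0 luminescence and scaled as inhibition from 0 (vehicle wells) to 1 (blank wells). Combination Emax is the second-highest inhibition in the matrix; Bliss excess is observed combination effect minus expected EA + EB − EA·EB, EA and EB being single-agent effects.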

[2] = tested on: HGC-27 (Gastric Carcinoma)
Outline: as §1

[3] = tested on: KARPAS-299 (T-Cell Non-Hodgkin's Lymphoma)
Outline: as §1

[4] = tested on: OE19 (Esophageal Adenocarcinoma)
Outline: as §1

[5] = tested on: LU-65 (Non-Small Cell Lung Carcinoma)
Outline: as §1

[6] = tested on: SCC-15 (Oral Cavity Carcinoma)
Outline: as §1

[7] = tested on: UACC-62 (Melanoma)
Outline: as §1

[8] = tested on: NCI-H358 (Lung Adenocarcinoma)
Outline: as §1

[9] = tested on: PWR-1E (Non-Cancerous)
Outline: as §1

[10] = tested on: ACHN (Kidney Carcinoma)
Outline: as §1

[11] = tested on: SW13 (Other Solid Carcinomas)
Outline: as §1

[12] = tested on: NEC8 (Other Solid Carcinomas)
Outline: as §1

[13] = tested on: KMOE-2 (Acute Myeloid Leukemia)
Outline: as §1

[14] = tested on: BT-549 (Breast Carcinoma)
Outline: as §1

[15] = tested on: SU8686 (Pancreatic Carcinoma)
Outline: as §1

[16] = tested on: HSC-4 (Oral Cavity Carcinoma)
Outline: as §1

[17] = tested on: PANC-04-03 (Pancreatic Carcinoma)
Outline: as §1

[18] = tested on: RF-48 (B-Cell Non-Hodgkin's Lymphoma)
Outline: as §1

[19] = tested on: OVCAR-4 (Ovarian Carcinoma)
Outline: as §1

[20] = tested on: NUGC-3 (Gastric Carcinoma)
Outline: as §1

Compound	Bliss excess [1]	Bliss excess [2]	Bliss excess [3]	Bliss excess [4]	Bliss excess [5]	Bliss excess [6]	Bliss excess [7]	Bliss excess [8]	Bliss excess [9]	Bliss excess [10]	Bliss excess [11]	Bliss excess [12]	Bliss excess [13]	Bliss excess [14]	Bliss excess [15]	Bliss excess [16]	Bliss excess [17]	Bliss excess [18]	Bliss excess [19]	Bliss excess [20]
Cc1c2c(nn1C)CSCc1cc(n(C)n1)CSc1cc(c3ccccc3c1)OCCCc1c(C(=O)O)n(C)c3c-2c(Cl)ccc13 [AZD5991] + Cn1cnc2c(F)c(Nc3ccc(Br)cc3Cl)c(C(=O)NOCCO)cc21 [Selumetinib] (first compound max 1 µM, 7x7, partner max 3 µM)	0.0129	0.033	0.0496	0.0051	0.03	0.0241	-0.0465	0.0531	-0.0294	0.0314	-0.0006	0.0374	-0.0227	0.0056	0.0084	-0.0175	0.0201	-0.0095	0.0473	0.0106
CC1(C)CCC(CN2CCN(c3ccc(C(=O)NS(=O)(=O)c4ccc(NCC5CCOCC5)c([N+](=O)[O-])c4)c(Oc4cnc5[nH]ccc5c4)c3)CC2)=C(c2ccc(Cl)cc2)C1 [Venetoclax] + C[C@@H]1COCCN1C2=NC(=NC(=C2)C3(CC3)[S@](=N)(=O)C)C4=C5C=CNC5=NC=C4 [AZD6738] (first compound max 1 µM, 7x7, partner max 10 µM)	-0.0355	-0.0099	-0.0328	-0.0691	-0.1	-0.06	-0.0196	-0.0224	-0.0747	-0.0445	0.0075	-0.0293	0.0071	-0.0331	-0.0285	-0.0509	-0.0168	-0.0039	-0.0384	-0.035
C=CCn1c(=O)c2cnc(Nc3ccc(N4CCN(C)CC4)cc3)nc2n1-c1cccc(C(C)(C)O)n1 [AZD1775] + C[C@@H]1COCCN1C2=NC(=NC(=C2)C3(CC3)[S@](=N)(=O)C)C4=C5C=CNC5=NC=C4 [AZD6738] (first compound max 1 µM, partner max 10 µM)	-0.0139	0.118	0.0169	0.0514	0.0327	-0.0216	0.0163	-0.0219	0.0106	-0.0184	0.0169	0.163	0.0308	0.0107	-0.0188	-0.0155	-0.025	-0.0098	0.0352	0.0683
CC(=O)c1c(C)c2cnc(Nc3ccc(N4CCNCC4)cn3)nc2n(C2CCCC2)c1=O [Palbociclib] + CC1(C)CCC(CN2CCN(c3ccc(C(=O)NS(=O)(=O)c4ccc(NCC5CCOCC5)c([N+](=O)[O-])c4)c(Oc4cnc5[nH]ccc5c4)c3)CC2)=C(c2ccc(Cl)cc2)C1 [Venetoclax] (first compound max 10 µM, 7x7, partner max 1 µM)	-0.0284	0.046	-0.0496	-0.0449	-0.0781	-0.0589	-0.0678	-0.0862	-0.0229	0.0329	-0.0444	-0.0265	-0.015	-0.034	-0.0391	-0.0523	-0.0528	-0.112	-0.0523	-0.0178
C=CCn1c(=O)c2cnc(Nc3ccc(N4CCN(C)CC4)cc3)nc2n1-c1cccc(C(C)(C)O)n1 [AZD1775] + O=C(c1cc(Cc2n[nH]c(=O)c3ccccc23)ccc1F)N1CCN(C(=O)C2CC2)CC1 [Olaparib] (first compound max 1 µM, partner max 10 µM)	-0.0631	0.0224	-0.0605	-0.0561	-0.0598	-0.043	-0.0207	-0.0184	-0.0175	-0.0445	-0.0137	0.0029	-0.0248	-0.0528	-0.0399	-0.0337	-0.0407	0.0129	0.0249	-0.0798
CC1(C)CCC(CN2CCN(c3ccc(C(=O)NS(=O)(=O)c4ccc(NCC5CCOCC5)c([N+](=O)[O-])c4)c(Oc4cnc5[nH]ccc5c4)c3)CC2)=C(c2ccc(Cl)cc2)C1 [Venetoclax] + Cn1cnc2c(F)c(Nc3ccc(Br)cc3Cl)c(C(=O)NOCCO)cc21 [Selumetinib] (first compound max 1 µM, 7x7, partner max 3 µM)	0.0092	-0.0178	-0.0102	-0.0484	-0.0153	-0.0428	-0.0235	-0.024	-0.0327	-0.0151	0.0137	-0.0151	-0.0168	-0.0691	-0.0792	-0.0211	-0.0633	-0.0034	-0.02	0.0051
COc1nnc2ccc(N3CCC(c4ccc(OCCN5CCN(C)C(=O)[C@H]5C)cc4)CC3)nn12 [AZD5153] + C[C@@H]1COCCN1C2=NC(=NC(=C2)C3(CC3)[S@](=N)(=O)C)C4=C5C=CNC5=NC=C4 [AZD6738] (first compound max 1 µM, 7x7, partner max 10 µM)	-0.0361	-0.0376	0.0074	-0.0416	-0.0292	0.0084	0.0179	-0.0855	0.0015	0.0379	-0.022	0.0124	0.0743	-0.0139	-0.0329	-0.0215	-0.008	-0.0851	0.0127	0.0398
CC1(C)CCC(CN2CCN(c3ccc(C(=O)NS(=O)(=O)c4ccc(NCC5CCOCC5)c([N+](=O)[O-])c4)c(Oc4cnc5[nH]ccc5c4)c3)CC2)=C(c2ccc(Cl)cc2)C1 [Venetoclax] + C=CCn1c(=O)c2cnc(Nc3ccc(N4CCN(C)CC4)cc3)nc2n1-c1cccc(C(C)(C)O)n1 [AZD1775] (first compound max 1 µM, partner max 1 µM)	0.0861	-0.0252	0.008	-0.0932	0.041	-0.0159	0.0405	0.0042	-0.0347	0.0604	0.0496	-0.0523	-0.0226	-0.0152	-0.0317	-0.0205	-0.0597	0.0016	0.0002	-0.0656
COc1nnc2ccc(N3CCC(c4ccc(OCCN5CCN(C)C(=O)[C@H]5C)cc4)CC3)nn12 [AZD5153] + Cn1cnc2c(F)c(Nc3ccc(Br)cc3Cl)c(C(=O)NOCCO)cc21 [Selumetinib] (first compound max 1 µM, 7x7, partner max 10 µM)	-0.0076	-0.083	0.0528	-0.02	0.031	0.032	0.0397	-0.0409	-0.0044	0.0033	0.0304	0.0165	0.0402	-0.0019	-0.0166	-0.0246	-0.0358	-0.0939	-0.0214	-0.0071
CC1(C)CCC(CN2CCN(c3ccc(C(=O)NS(=O)(=O)c4ccc(NCC5CCOCC5)c([N+](=O)[O-])c4)c(Oc4cnc5[nH]ccc5c4)c3)CC2)=C(c2ccc(Cl)cc2)C1 [Venetoclax] + COc1cc(Nc2ncc3c(n2)-c2ccc(Cl)cc2C(c2c(F)cccc2OC)=NC3)ccc1C(=O)O [Alisertib] (first compound max 1 µM, 7x7, partner max 10 µM)	-0.0586	0.0133	0.134	-0.059	-0.0164	-0.0257	0.01	0.0186	-0.0103	0.0062	0.0421	-0.0037	0.0304	0.0371	-0.0438	-0.0528	-0.0843	0.194	-0.0215	0.0325
CC1(C)CCC(CN2CCN(c3ccc(C(=O)NS(=O)(=O)c4ccc(NCC5CCOCC5)c([N+](=O)[O-])c4)c(Oc4cnc5[nH]ccc5c4)c3)CC2)=C(c2ccc(Cl)cc2)C1 [Venetoclax] + CN(C)CCCOc1ccc(-c2ccc3ncc4c(c3c2)n(C2CCOCC2)c(=O)n4C)cn1 [AZD0156] (first compound max 1 µM, 7x7, partner max 1 µM)	-0.0122	0.0396	0.0353	-0.0861	0.0173	-0.0146	0.0254	-0.0146	0.0005	-0.0333	0.027	0.0105	-0.0291	-0.0049	-0.0036	-0.0392	-0.062	-0.0109	-0.0338	-0.0035
Cc1c2c(nn1C)CSCc1cc(n(C)n1)CSc1cc(c3ccccc3c1)OCCCc1c(C(=O)O)n(C)c3c-2c(Cl)ccc13 [AZD5991] + CC1(C)CCC(CN2CCN(c3ccc(C(=O)NS(=O)(=O)c4ccc(NCC5CCOCC5)c([N+](=O)[O-])c4)c(Oc4cnc5[nH]ccc5c4)c3)CC2)=C(c2ccc(Cl)cc2)C1 [Venetoclax] (first compound max 1 µM, 7x7, partner max 1 µM)	0.0456	0.1	0.0445	-0.0285	-0.0487	-0.0341	0.0296	-0.0289	0.0087	0.0156	0.0016	0.0396	0.0141	0.0296	-0.0391	-0.0498	-0.0381	0.12	0.0108	-0.0125
NC1(C(=O)N[C@@H](CCO)c2ccc(Cl)cc2)CCN(c2ncnc3[nH]ccc23)CC1 [Capivasertib] + CC(=O)c1c(C)c2cnc(Nc3ccc(N4CCNCC4)cn3)nc2n(C2CCCC2)c1=O [Palbociclib] (first compound max 10 µM, 7x7, partner max 10 µM)	0.0364	-0.0085	0.0205	-0.0854	-0.151	-0.0456	-0.057	-0.0373	-0.017	0.003	-0.0236	-0.0104	-0.0566	-0.0064	-0.0465	-0.0777	-0.0351	-0.0186	-0.0517	0.0372
CS(=O)(=O)CCNCc1ccc(-c2ccc3ncnc(Nc4ccc(OCc5cccc(F)c5)c(Cl)c4)c3c2)o1 [Lapatinib] + C[C@@H](Oc1cc(-c2cnn(C3CCNCC3)c2)cnc1N)c1c(Cl)ccc(F)c1Cl [Crizotinib] (first compound max 10 µM, 7x7, partner max 10 µM)	-0.0458	-0.0903	0.0532	-0.007	-0.0236	-0.0015	-0.0153	-0.0522	-0.0184	-0.0558	-0.0291	-0.0234	0.0174	-0.0916	-0.0299	-0.0097	-0.0586	-0.0441	-0.0231	-0.142
